These results are taken from ChEMBL document CHEMBL5360577, “Multicomponent Petasis reaction for the identification of pyrazine based multi-target directed anti-Alzheimer's agents: In-silico design, synthesis, and characterization” (Eur J Med Chem, 2023).

The structures appear in SMILES notation. Activity calls are given as the source filed them. The calls are words filed in the database; no cut-off is given here.

The target in assay [1] is T1, Microtubule-associated protein tau (Homo sapiens, UniProt P10636). The assay can be described thus: Inhibition of cellular tau (unknown origin) aggregation incubated for 2 hrs by FRET assay.
For assay [2], the target named is T2, Acetylcholinesterase (Homo sapiens, UniProt P22303). The assay can be described thus: Inhibition of human AChE using acetylthiocholine as substrate by Ellman's method. (In general: Ellman's reagent forms a yellow product with free thiols.)
The subject of the next assay is SH-SY5Y. The assay can be described thus: Neuroprotective activity in human SH-SY5Y cell model transfected with wild-type tau assessed as cell viability at 1 to 10 uM by MTT assay. The class given is functional, cell-based. Particulars: dose 1-10 µM. A general note: Tetrazolium dyes change colour on reduction, which living cells bring about.
The target of assay [3] is T1, Microtubule-associated protein tau. The assay can be described thus: Inhibition of cellular tau (unknown origin) aggregation at 10 uM incubated for 2 hrs by FRET assay.
For assay [4], the target named is T2, Acetylcholinesterase. The assay can be described thus: Inhibition of human AChE using acetylthiocholine as substrate at 10 uM by Ellman's method.
The target of assay [5] is T1, Microtubule-associated protein tau. The assay can be described thus: Inhibition of tau (unknown origin) aggregation at 10 uM relative to control.
Assay [6] deals with Amyloid-beta precursor protein (Homo sapiens) (UniProt P05067). The assay can be described thus: Inhibition of amyloid beta (unknown origin) aggregation at 10 uM relative to control.
Assay [7] has as its target T2, Acetylcholinesterase. The assay can be described thus: Inhibition of human AChE by Ellman's method.
The next assay addresses Cholinesterase (Homo sapiens, UniProt P06276). The assay can be described thus: Inhibition of human BuChE by Ellman's method.
The target of assay [8] is T3, Amine oxidase [flavin-containing] B (Homo sapiens, UniProt P27338).
T3 sequence (P27338 whole entry): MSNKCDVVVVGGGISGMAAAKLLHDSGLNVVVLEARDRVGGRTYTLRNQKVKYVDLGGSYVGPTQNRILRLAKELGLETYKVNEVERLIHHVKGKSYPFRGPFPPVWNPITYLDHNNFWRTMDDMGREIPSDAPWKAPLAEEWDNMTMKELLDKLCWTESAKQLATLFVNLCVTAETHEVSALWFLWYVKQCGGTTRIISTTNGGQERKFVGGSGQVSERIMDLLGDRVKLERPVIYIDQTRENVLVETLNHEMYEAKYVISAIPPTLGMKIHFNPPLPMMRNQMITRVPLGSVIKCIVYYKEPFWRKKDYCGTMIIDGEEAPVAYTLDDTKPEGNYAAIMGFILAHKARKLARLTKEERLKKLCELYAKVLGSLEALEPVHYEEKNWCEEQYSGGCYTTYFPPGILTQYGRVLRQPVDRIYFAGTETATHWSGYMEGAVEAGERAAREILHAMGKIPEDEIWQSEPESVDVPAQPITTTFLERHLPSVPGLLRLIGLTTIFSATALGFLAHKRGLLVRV
The assay can be described thus: Inhibition of human MAO-B by fluorometric assay.

The target of assay [9] is T2, Acetylcholinesterase. The assay can be described thus: Inhibition of human AChE using acetylthiocholine as substrate at 10 uM by Ellman's method relative to control.

T1 sequence (P10636 whole entry): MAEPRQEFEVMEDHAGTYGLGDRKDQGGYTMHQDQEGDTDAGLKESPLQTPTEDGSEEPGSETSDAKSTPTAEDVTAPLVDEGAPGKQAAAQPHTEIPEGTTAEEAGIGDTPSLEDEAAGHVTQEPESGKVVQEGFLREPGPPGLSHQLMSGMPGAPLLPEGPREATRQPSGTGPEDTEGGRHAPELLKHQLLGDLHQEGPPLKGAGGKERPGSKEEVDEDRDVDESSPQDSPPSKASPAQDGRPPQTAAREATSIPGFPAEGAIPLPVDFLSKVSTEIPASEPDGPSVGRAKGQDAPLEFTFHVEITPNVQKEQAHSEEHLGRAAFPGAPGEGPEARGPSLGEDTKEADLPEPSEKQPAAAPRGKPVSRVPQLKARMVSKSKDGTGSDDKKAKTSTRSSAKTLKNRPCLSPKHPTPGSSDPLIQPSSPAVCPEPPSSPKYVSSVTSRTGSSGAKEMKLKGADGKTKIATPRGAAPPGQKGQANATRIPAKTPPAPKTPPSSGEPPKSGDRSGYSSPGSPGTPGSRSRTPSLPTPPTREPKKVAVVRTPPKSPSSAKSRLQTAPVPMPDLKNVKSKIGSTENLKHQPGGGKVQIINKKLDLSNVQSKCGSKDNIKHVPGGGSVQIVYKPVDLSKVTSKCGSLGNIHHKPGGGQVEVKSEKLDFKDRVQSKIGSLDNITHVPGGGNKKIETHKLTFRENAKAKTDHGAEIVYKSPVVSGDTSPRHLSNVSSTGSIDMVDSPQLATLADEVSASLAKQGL
T2 sequence (P22303 whole entry): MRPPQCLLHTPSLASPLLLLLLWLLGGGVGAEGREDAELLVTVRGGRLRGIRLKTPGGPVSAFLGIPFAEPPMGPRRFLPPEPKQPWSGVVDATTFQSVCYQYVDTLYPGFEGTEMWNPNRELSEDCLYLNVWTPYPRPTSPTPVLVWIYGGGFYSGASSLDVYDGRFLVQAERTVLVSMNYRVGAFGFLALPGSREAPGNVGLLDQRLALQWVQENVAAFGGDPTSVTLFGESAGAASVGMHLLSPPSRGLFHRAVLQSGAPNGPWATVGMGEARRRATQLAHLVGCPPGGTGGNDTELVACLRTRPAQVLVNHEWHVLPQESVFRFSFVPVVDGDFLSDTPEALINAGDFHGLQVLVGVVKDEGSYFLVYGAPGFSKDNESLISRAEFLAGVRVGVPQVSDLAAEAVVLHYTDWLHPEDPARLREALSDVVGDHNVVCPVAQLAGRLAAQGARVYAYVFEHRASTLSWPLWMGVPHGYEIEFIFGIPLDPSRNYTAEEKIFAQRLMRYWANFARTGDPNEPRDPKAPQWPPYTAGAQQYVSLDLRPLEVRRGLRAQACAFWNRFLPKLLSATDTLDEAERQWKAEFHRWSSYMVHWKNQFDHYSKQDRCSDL
Sequence of Cholinesterase (P06276 whole entry): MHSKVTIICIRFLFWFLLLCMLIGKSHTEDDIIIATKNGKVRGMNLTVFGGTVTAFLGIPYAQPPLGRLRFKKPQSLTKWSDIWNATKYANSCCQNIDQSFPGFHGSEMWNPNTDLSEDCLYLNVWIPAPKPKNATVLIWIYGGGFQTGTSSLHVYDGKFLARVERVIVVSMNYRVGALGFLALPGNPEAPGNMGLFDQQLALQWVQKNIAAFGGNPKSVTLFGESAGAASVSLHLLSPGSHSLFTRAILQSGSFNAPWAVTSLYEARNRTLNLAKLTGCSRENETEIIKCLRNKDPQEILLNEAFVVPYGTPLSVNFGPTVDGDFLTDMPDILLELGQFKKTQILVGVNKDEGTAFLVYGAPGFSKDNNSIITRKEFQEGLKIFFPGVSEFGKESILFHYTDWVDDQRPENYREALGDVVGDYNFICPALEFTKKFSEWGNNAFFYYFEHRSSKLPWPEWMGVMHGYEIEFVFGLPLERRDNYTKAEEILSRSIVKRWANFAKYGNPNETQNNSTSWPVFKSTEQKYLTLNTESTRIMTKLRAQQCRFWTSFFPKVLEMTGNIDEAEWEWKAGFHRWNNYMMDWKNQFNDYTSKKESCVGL
Sequence of Amyloid-beta precursor protein (Homo sapiens) (P05067 whole entry): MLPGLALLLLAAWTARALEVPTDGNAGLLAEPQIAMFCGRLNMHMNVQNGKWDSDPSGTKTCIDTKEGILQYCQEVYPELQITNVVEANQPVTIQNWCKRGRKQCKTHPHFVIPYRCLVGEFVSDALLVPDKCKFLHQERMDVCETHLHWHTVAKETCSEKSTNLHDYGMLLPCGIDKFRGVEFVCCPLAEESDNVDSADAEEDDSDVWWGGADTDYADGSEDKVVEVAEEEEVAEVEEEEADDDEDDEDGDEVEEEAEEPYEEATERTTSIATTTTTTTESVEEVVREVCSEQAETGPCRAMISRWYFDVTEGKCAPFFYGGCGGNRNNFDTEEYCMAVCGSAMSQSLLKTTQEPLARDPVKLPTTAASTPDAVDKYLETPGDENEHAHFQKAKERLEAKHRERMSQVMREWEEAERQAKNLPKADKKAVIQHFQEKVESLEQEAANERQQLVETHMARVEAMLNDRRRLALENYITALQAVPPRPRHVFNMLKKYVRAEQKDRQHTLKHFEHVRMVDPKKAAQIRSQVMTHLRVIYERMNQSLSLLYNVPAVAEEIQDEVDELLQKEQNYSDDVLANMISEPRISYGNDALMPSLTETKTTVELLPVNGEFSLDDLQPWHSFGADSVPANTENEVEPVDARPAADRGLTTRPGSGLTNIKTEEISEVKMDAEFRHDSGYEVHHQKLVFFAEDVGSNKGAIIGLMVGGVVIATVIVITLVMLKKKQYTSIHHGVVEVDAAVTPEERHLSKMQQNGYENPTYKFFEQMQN

As usually defined, the EC50 is the concentration that produces a half-maximal response. As usually defined, the IC50 is the concentration that inhibits the measured activity by half. A low value points to higher potency. What is called inhibition is the relative decrease from the control value, in per cent. In turn, `COc1cccc(C(c2ccc(F)cc2)N2CCN(c3cnccn3)CC2)c1O` (configuration not stated) yielded an EC50 in assay [1] of 2.21 µM. For the same molecule, the IC50 against Acetylcholinesterase [2] came to 0.71 µM. Besides, in the assay with SH-SY5Y, the result was Active. The inhibition result (in assay [3]; on Acetylcholinesterase [4]) was “Active” in each case.

With `Cc1ccc(C(c2ccccc2O)N2CCN(c3cnccn3)CC2)cc1` (configuration not stated), the EC50 in [1] is 2.71 µM. On Acetylcholinesterase [2], this molecule returned an IC50 of 1.09 µM. Besides, the outcome in the assay with SH-SY5Y was Active. For the same molecule, the inhibition result (in [3]; on Acetylcholinesterase [4]) was “Active” throughout.

Take `OC(CNCCC(c1ccccc1)c1ccccc1)CNCc1ccccc1` (configuration not stated): the inhibition was determined as 68% in [5] and 80% in assay [6].

`Cc1cc(C)c(C(=O)/C=C/c2nc(C)c(C)nc2C)cc1C`: the IC50 came to 2.4 µM against Acetylcholinesterase [7], 37.6 µM against Cholinesterase and 11.2 µM in assay [8].

For `Oc1ccccc1C(c1ccc(C(F)(F)F)cc1)N1CCN(c2cnccn2)CC1` (configuration not stated), the inhibition at Acetylcholinesterase [9] was less than 40%. Moreover, the inhibition entry at Acetylcholinesterase [4] is “Active”.
